The test system of data set [1] is human 17073 primary head & neck xenografts. Description: Antitumor activity and toxicity in SCID mice bearing human 17073 primary head & neck xenografts. As to conditions: at MTD. The class given is in vivo. The text has this:
FIG. 2 Comparison of antitumor activity and toxicity (body weight loss) of FL118 with irinotecan in SCID mice bearing human 17073 primary head & neck xenografts: A and B. Antitumor activity and toxicity of FL118 and irinotecan against 17073 tumors. C, D and E. Individual 17073 tumor in response to FL118 and irinotecan. The treatment schedule was weekly×4 as indicated by arrows. The doses for FL118 and irinotecan were their MTD in the weekly×4 schedule.
(§1) Human tumor xenografts were initially established by injecting s.c 1×10^6 cultured cancer cells. The xenografts were then passed several generations by transplanting 40-50 mg non-necrotic tumor tissues via a trocar from the passage tumors. Human primary tumors were initially obtained from cancer patients at Roswell Park Cancer Institute and established in SCID mice. Human tumor xenografts used in this study include human head & neck squamous cell carcinoma FaDu, human primary head & neck tumor 17073, human ileocecal adenocarcinoma HCT-8, human colon cancer SW620 and human primary colon cancer 11124 and 14528. Treatment was initiated 7 days after tumor transplantation when the tumor reaches 200-250 mg, at which the treatment was designated as Day 0. All cancer cells used for tumor establishment were tested for mycoplasma free. The transplantable tumor has similar histological profile of cultured cells.
Two axes (mm) of a tumor (L, longest axis; W, shortest axis) were measured with a Vernier caliper. Tumor weight (mg) was estimated using a formula of “tumor weight=½ (L×W^2)”. […]
(§2) Antitumor activity was assessed by maximum tumor growth inhibition (MTGI), which is the mean tumor weight difference between treated group (MTWTG) and untreated control group (MTWCG) at the same time. The calculated formula is “MTGI=(MTWTG−MTWCG)÷MTWCG×100%”. […] Tumor response was expressed as 1) partial tumor response (PR) when tumor weight was reduced at least 50% initial tumor size on Day 0 and 2) complete tumor response (CR) which was defined as inability to detect tumor via palpitation at the initial tumor-transplanted site. […]

For data set [2] the following is noted: irinotecan, stated without source; cited from earlier work.
The subject of data set [3] is human HCT-8 colon tumor xenografts. Description: Antitumor activity in nude mice bearing human HCT-8 colon tumor xenografts. It counts as in vivo. Here is the method:
(§3) Six to 12-week-old female athymic nude mice (nu/nu, body weight 20-25 g) were purchased from Charles River Laboratories International, Inc. (Wilmington, Mass.) or Harlan Sprague Dawley Inc. (Indianapolis, Ind.). Six to 12-week-old female SCID mice were purchased from Roswell Animal facility (DLAR). Mice were housed at 5 mice per cage with water and food ad libitum. All animal experiments are performed in accordance with our IACUC-approved animal protocol.
FL118 was first dissolved in DMSO at a concentration of 1 mg/ml, and further diluted in a fresh Tween-80/saline solution. The final work solution consists of FL118 (0.05 mg/ml), 75% saline (V/V), 20% Tween-80 (V/V) and 5% DMSO (V/V). Control solution (placebo or vehicle) is 75% saline, 20% Tween-80 and 5% DMSO without FL118. Other FDA-approved anticancer drugs used in this invention for a comparison were used clinical formulations from the corresponding manufactures.
as §1
The following schedules were used: 1) i.p. daily×2: once a day for consecutive 2 days; 2) i.p. daily×3: once a day for consecutive 3 days; 3) daily×5: once a day for consecutive 5 days (i.p. or p.o.); 4) i.p.×3 (day 0, 2, 4): 3 times on day 0, 2, and 4; 5) i.p. 2 days/week×¾: 2 times a week for 3 or 4 consecutive weeks; 6) weekly×4: once a week for 4 consecutive weeks (i.p. or p.o.); 7) i.p. biweekly×4: once every two weeks for 8 weeks; 8) 2 days/week×4: give 2 times a week for 4 weeks; and 9) i.p.×1: one time drug i.p. injection on Day 0.
Two axes (mm) of a tumor (L, longest axis; W, shortest axis) were measured with a Vernier caliper. Tumor weight (mg) was estimated using a formula of “tumor weight=½ (L×W^2)”. Tumor measurement was taken daily for the first two weeks and/or during the FL118 treatment period (with the exception of weekend) and then three times a week for the following two weeks of post therapy and twice a week thereafter.
Antitumor activity was assessed by maximum tumor growth inhibition (MTGI), which is the mean tumor weight difference between treated group (MTWTG) and untreated control group (MTWCG) at the same time. The calculated formula is “MTGI=(MTWTG−MTWCG)÷MTWCG×100%”. The tumor doubling time (TDT) was defined as the mean time for the tumor reaching twice its initial weight from the time beginning the treatment (Day 0). Tumor response was expressed as 1) partial tumor response (PR) when tumor weight was reduced at least 50% initial tumor size on Day 0 and 2) complete tumor response (CR) which was defined as inability to detect tumor via palpitation at the initial tumor-transplanted site. […]
Background: Xenograft models place foreign cells or tissue in a host animal.

In data set [4] the test system is human FaDu head and neck tumor xenografts. Description: Antitumor activity in nude mice bearing human FaDu head and neck tumor xenografts. The class given is in vivo. Conditions: one-time i.p. injection at about MTD (FIG. 1). The procedure:
as §3
FL118 was first dissolved in DMSO at a concentration of 1 mg/ml, and further diluted in a fresh Tween-80/saline solution. The final work solution consists of FL118 (0.05 mg/ml), 75% saline (V/V), 20% Tween-80 (V/V) and 5% DMSO (V/V). […]
(§4) Two axes (mm) of a tumor (L, longest axis; W, shortest axis) were measured with a Vernier caliper. […]
as §2

The nature of data set [5]: Solubility testing in DMSO, ethanol, water.
In a further data set the test system is human tumor xenografts. Description: Antitumor activity/toxicity in human tumor mouse models (general statements). As to conditions: example: SCID mice, primary colon 11124 and 14528, weekly×4 (FIG. 15). The class given is in vivo. The procedure: as §3
Human tumor xenografts were initially established by injecting s.c 1×10^6 cultured cancer cells. The xenografts were then passed several generations by transplanting 40-50 mg non-necrotic tumor tissues via a trocar from the passage tumors. […]
as §4, §2

Data on two compounds can be found in patent publication US9422303B2, “Formulations of water-insoluble chemical compounds and methods of using a formulation of compound FL118 for cancer therapy” (Health Research, Inc., priority 2010, dated 2016).

For the compound `CCc1c2c(nc3ccc(OC(=O)N4CCC(N5CCCCC5)CC4)cc13)-c1cc3c(c(=O)n1C2)COC(=O)[C@]3(O)CC` [Irinotecan, irinotecan], in data set [1] (weekly×4), the “body weight loss (toxicity)” value was “accumulated body weight loss” and the “tumor relapse after complete response” value is listed as “rapid relapse”. In addition, in data set [1] (weekly×4, 5 mice per group), the “mice with complete response” value was 40%. The MTD in data set [2] was 100 to 200 mg/kg. In data set [3] (100 mg/kg, i.p. weekly × 4), this compound gave a CR of 0%, an MTGI of 94.1 ± 3.6%, a PR of 60% and a TDT of 32.7 ± 11.5 days. The “antitumor activity compared with FDA-approved drugs” value in data set [3] (one-time i.p. injection at about MTD (FIG. 1)) is recorded as “second most effective compound”. Moreover, in data set [4], the “antitumor activity compared with FDA-approved drugs” value was “second most effective compound”.
For the compound `CCC1(O)C(=O)OCc2c1cc1n(c2=O)Cc2cc3cc4c(cc3nc2-1)OCO4` (racemic) [FL113, 10H,12H-1,3-Dioxolo[4,5-g]pyrano[3′,4′:6,7]indolizino[1,2-b]quinoline-8,11(7H,10H)-dione, 7-ethyl-7-hydroxy-, (+-)], the solubility in ethanol result in data set [5] is reported as “poorly dissolve in ethanol”. Besides, the “antitumor activity, comparison of FL118, FL113 and irinotecan” value in the data set with human tumor xenografts is given as “better than irinotecan in most cases”.
